Test results published in paper PMC7180456, “Multitarget Anticancer Agents Based on Histone Deacetylase and Protein Kinase CK2 Inhibitors” (Molecules, 2020).
Where two headings read alike, the source gives them in different places.

Assays:
[1] = target: T1, human recombinant HDAC1 (Homo sapiens, UniProt Q13547); assay: HDAC1 inhibition, fluorometric method (Enzo Fluorometric Drug Discovery Assay Kit); type: biochemical; conditions: read-out: Inhibitory activity IC50 on HDAC1
T1 construct: purchased Enzo Life Sciences, Inc
T1 sequence (Q13547 whole entry): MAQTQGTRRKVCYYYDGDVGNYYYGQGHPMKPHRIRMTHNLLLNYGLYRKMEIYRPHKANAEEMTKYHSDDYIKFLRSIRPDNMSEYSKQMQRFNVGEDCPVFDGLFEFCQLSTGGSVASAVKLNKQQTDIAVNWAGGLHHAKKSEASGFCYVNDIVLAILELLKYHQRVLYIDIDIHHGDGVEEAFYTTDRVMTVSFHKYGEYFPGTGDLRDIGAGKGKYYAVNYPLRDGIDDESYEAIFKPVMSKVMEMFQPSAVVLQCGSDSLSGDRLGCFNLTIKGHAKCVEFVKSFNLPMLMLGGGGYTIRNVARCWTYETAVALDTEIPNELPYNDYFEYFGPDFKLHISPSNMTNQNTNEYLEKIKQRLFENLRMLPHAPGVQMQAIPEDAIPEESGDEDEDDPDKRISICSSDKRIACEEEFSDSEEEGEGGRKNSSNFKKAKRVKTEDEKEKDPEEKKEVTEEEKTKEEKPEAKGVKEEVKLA
Method: The inhibitory activities of the synthesized compounds were determined against CK2 and HDAC1 and the IC50 values are collected in Table 1. The activity towards human recombinant HDAC1 was tested using a fluorometric method. CK2 inhibitory activity was determined by a radiometric method, using a short peptide ([…]) as a substrate.
(§1) 15 µL of HDAC1 (0.4 µg/well) or HDAC6 (0.5 µg/well) were incubated at 37 °C for 30 minutes with 10 µL of inhibitor diluted in 5% DMSO and 25 µL of fluorogenic substrate (0.05 µL/well of 5 mM solution). Reactions were stopped with the developer and trichostatin A, diluted in buffer without BSA, and the plate was incubated at 30 °C for 45 min, followed by measuring the fluorescence (Ex. 360 nm, Em. 450 nm, Fluoroskan, Thermo Scientific).

[2] = target: T2, HDAC6 (Homo sapiens, UniProt Q9UBN7); assay: HDAC6 inhibition, fluorometric method (Enzo Fluorometric Drug Discovery Assay Kit); type: biochemical; conditions: read-out: Inhibitory activity IC50 on HDAC6
T2 construct: purchased Enzo Life Sciences, Inc
T2 sequence (Q9UBN7 1-1215): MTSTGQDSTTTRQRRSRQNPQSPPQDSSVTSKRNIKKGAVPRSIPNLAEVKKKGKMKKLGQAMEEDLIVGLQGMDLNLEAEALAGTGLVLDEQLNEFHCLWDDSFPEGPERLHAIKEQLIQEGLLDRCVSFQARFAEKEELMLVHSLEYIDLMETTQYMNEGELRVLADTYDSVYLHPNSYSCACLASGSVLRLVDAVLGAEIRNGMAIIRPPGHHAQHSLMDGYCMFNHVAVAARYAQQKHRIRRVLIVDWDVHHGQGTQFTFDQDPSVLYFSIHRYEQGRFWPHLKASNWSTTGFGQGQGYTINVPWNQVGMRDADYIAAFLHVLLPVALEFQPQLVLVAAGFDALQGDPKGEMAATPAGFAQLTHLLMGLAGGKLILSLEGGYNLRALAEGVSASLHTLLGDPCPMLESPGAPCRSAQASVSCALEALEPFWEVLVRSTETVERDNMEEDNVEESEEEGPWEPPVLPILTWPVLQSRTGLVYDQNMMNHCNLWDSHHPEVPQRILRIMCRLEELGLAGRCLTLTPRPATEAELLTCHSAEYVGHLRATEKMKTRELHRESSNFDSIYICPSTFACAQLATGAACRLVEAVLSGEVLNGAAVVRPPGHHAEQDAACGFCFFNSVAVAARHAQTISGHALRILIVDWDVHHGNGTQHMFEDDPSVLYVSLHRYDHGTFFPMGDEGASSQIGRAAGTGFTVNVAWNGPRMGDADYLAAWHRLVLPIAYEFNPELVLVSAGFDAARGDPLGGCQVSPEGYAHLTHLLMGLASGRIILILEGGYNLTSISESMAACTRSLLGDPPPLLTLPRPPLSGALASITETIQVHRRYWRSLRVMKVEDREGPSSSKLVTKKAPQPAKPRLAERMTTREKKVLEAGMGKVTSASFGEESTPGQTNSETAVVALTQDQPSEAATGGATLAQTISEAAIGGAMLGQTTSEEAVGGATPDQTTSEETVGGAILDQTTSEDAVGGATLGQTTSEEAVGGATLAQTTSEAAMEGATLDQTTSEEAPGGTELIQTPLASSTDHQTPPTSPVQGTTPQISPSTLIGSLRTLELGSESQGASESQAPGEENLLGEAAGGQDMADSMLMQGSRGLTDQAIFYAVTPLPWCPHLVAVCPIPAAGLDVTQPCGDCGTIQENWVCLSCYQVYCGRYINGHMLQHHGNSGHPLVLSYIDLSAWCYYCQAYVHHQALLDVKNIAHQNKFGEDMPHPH
Method: For this reason, we analyzed the activity of 15 and 19, together with other compounds from the alkyl and triazole series in HDAC6, tested using a fluorometric method (Table 1).
as §1

[3] = target: T3, human recombinant CK2α (Homo sapiens, UniProt P68400); assay: CK2 inhibition, radiometric method with peptide substrate […]; type: biochemical; conditions: for IC50: radiometric method, 20 µM ATP, read-out: Inhibitory activity IC50 on CK2
T3 construct: GST; made in house; host or cells: bacteria
T3 sequence (P68400 whole entry): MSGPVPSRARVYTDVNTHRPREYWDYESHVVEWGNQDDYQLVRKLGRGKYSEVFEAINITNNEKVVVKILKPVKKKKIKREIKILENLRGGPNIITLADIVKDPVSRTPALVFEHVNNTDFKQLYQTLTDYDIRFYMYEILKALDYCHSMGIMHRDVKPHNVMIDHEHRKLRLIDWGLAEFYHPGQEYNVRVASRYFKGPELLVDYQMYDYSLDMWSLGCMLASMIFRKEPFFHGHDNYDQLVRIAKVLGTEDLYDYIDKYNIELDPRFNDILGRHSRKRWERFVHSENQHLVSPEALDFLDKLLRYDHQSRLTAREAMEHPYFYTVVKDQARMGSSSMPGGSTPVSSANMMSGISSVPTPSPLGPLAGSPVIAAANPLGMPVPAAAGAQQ
Method: The activity towards human recombinant HDAC1 was tested using a fluorometric method. CK2 inhibitory activity was determined by a radiometric method, using a short peptide ([…]) as a substrate.
Recombinant human protein kinase GST-CK2 was produced in bacteria and purified as described elsewhere. […] The reaction buffer contained 20 µM [γ-32P] ATP (specific radioactivity 300–1000 cpm/pmol), 15 mM Mg^2+, 20 mM Tris–HCl pH 7.5, and 6 mM 2-mercaptoethanol. 10 µL of the assay mixture was spotted onto a square (1 cm/1 cm) of Whatman P81 paper and allowed to dry. Each square was immersed in cold 0.5% phosphoric acid, and washed three times during 10 min, allowed to dry and transferred into a vessel containing Opti-Phase liquid (scintillation solution) and radioactivity was quantified using a scintillation counter (MicroBeta, Perkin Elmer) by Cerenkov counting. All experiments were performed in triplicate. IC50 values were calculated using GraphPad Prism (version 4.0) software.

[4] = system: CK2; conditions: Figure 1; read-out: IC50 of representative CK2 inhibitors; cited from earlier work
[5] = system: human tumor and pseudonormal cell lines; assay: Cytotoxicity, trypan blue assay, range over the cell lines tested; type: cell-based; conditions: 24 h, read-out: LC50 range depending on cell line
Source text: (§2) Statistical significance was set at P ≤ 0.05.

[6] = system: Jurkat T-leukemia cells; assay: Cytotoxicity, trypan blue exclusion assay, 24 h; conditions: Homo sapiens
Method: (§4) Walter Berger, Institute of Cancer Research, Vienna Medical University. Human embryonal kidney cells of HEK293 line were obtained from cell culture collection of R.E. Kavetsky Institute of Experimental Pathology, Oncology and Radiobiology, National Academy of Sciences of Ukraine (Kyiv, Ukraine).
(§5) Cells were seeded (5 × 10^5/mL for leukemia cells and 1 × 10^5/mL for carcinoma cells) into 24-well tissue culture plates (Greiner Bio-one, Frickenhausen, Germany) and were permitted to adhere and grow for 24 h before the experiment. Short-term (24 h) cytotoxic effect of antitumor drugs was studied under the Evolution 300 Trino microscope (Delta Optical, Nowe Osiny, Poland) after cell staining with trypan blue dye (0.1%).
(§6) Final concentration of DMSO in cell culture was 0.5% or less.
(§7) All experiments were performed in triplicate and repeated three times. Statistical analysis of data was conducted in GraphPad Prism 7.0 Software (GraphPad Software, Inc.) using Student’s t test. Statistical significance was set at P ≤ 0.05. Evaluation of LC50 values of each compound was done by built-in functions of GraphPad Prism (non-linear regression, curve fit, [Inhibitor] vs. normalized response - Variable slope).

[7] = Cytotoxicity, trypan blue exclusion assay, 24 h (pseudonormal cells); conditions: human, HEK293 embryonic kidney cells (pseudonormal)
Method: as §4, §5, §6, §7

[8] = system: leukemia cells of HL-60 line; assay: Cytotoxicity, trypan blue exclusion assay, 24 h; type: cell-based; conditions: Homo sapiens
Source text: (§3) Taking into consideration the high abundance of CK2 kinase in leukemia and lymphomas, the ability of selected CK2-HDAC dual inhibitors to circumvent MDR was investigated in human leukemia cells of HL-60 line and its doxorubicin-resistant (HL-60/adr, MRP-1 overexpression) and vincristine-resistant (HL-60/vinc, P-gp overexpression) sublines.
as §2

[9] = system: HL-60/vinc (vincristine-resistant, P-gp overexpression); assay: Cytotoxicity, trypan blue exclusion assay, 24 h; type: cell-based; conditions: Homo sapiens, HL60/vinc
Source text: as §3, §2

[10] = system: HL-60/adr (doxorubicin-resistant, MRP-1 overexpression); assay: Cytotoxicity, trypan blue exclusion assay, 24 h; type: cell-based; conditions: Homo sapiens, HL60/ADR
Source text: as §3, §2

[11] = system: breast adenocarcinoma cells of MCF-7 line; assay: Cytotoxicity, trypan blue exclusion assay, 24 h; conditions: Homo sapiens
Method: as §4, §5, §6, §7

[12] = system: HCT-116 colon carcinoma cells; assay: Cytotoxicity, trypan blue exclusion assay, 24 h; conditions: Homo sapiens
Method: as §4, §5, §6, §7

[13] = system: HL-60/wt cells; assay: Depolarization of mitochondria, JC-1 assay, FACS; type: cell-based, human; conditions: 24 h

**Q.** Which results are given for `CN(C)c1nc2c(Br)c(Br)c(Br)c(Br)c2n1Cc1cn(CCCCC(=O)NO)nn1` [Compound 7b, N-Hydroxy-5-(4-((4,5,6,7-tetrabromo-2-(dimethylamino)-1H-benzo[d]imidazol-1-yl)methyl)-1H-1,2,3-triazol-1-yl)pentanamide]?
**A.** IC50 [1]: 2.25 µM; IC50 [2]: 2.41 µM; fold less active in CK2 (than in HDAC1) ([3]; CK2 IC50 versus HDAC1 IC50): 22 fold; IC50 [3]: 50.1 µM

**Q.** Which IC50 [4] does the source give for `O=c1c(O)c(-c2ccc(O)c(O)c2)oc2cc(O)ccc12` [Fisetin] here?
**A.** The IC50 was 0.35 µM.

**Q.** What does the source list for `CN(C)c1nc2c(Br)c(Br)c(Br)c(Br)c2n1CCCCCCC(=O)NO` [Compound 11c, N-Hydroxy-7-(4,5,6,7-tetrabromo-2-(dimethylamino)-1H-benzo[d]imidazol-1-yl)heptanamide]?
**A.** CC50 [5]: 1.9 to 13.6 µM; CC50 ([6]; 24 h, read-out: LC50 Values of Compounds for Cell Line, Jurkat): 9.47 ± 1.1 µM; CC50 ([6]; read-out: LC50 values of compounds for cell line, Jurkat): 5.63 µM; IC50 [1]: 1.77 µM; CC50 at 24 h ([7]; LC50 Values of Compounds for Cell Line, HEK293, Table 2, trypan blue, 24 h, M ± SD): 13.6 ± 0.8 µM; CC50 at 24 h ([7]; LC50 values of compounds for cell line, HEK293, supplement Table 4S, M±SD): 8.41 µM; IC50 [2]: 1.13 µM; CC50 ([8]; Table 2, trypan blue, 24 h, M ± SD, read-out: LC50 Values of Compounds for Cell Line, HL-60): 6.59 ± 0.96 µM; CC50 ([8]; supplement Table 4S, M±SD, read-out: LC50 values of compounds for cell line, HL-60): 4.69 µM; CC50 ([9]; Table 2, trypan blue, 24 h, M ± SD, read-out: LC50 Values of Compounds for Cell Line, HL-60/vinc): 12.1 ± 3.27 µM; CC50 ([9]; supplement Table 4S, M±SD, read-out: LC50 values of compounds for cell line, HL-60/vinc): 2.49 µM; CC50 ([10]; Table 2, trypan blue, 24 h, M ± SD, read-out: LC50 Values of Compounds for Cell Line, HL-60/adr): 10.6 ± 1.53 µM; CC50 ([10]; supplement Table 4S, M±SD, read-out: LC50 values of compounds for cell line, HL-60/adr): 8.4 µM; fold difference in the CK2 inhibitory activity compared to 11b ([3]; compared to 11b): 4.5 fold; IC50 [3]: 16.6 µM; CC50 ([11]; MCF7, 24 h, read-out: LC50 Values of Compounds for Cell Line, MCF-7): 9.97 ± 0.99 µM; CC50 ([11]; MCF7, read-out: LC50 values of compounds for cell line, MCF-7): 9.02 µM; CC50 ([12]; HCT-116, 24 h, read-out: LC50 Values of Compounds for Cell Line, HCT-116): 1.9 ± 0.24 µM; CC50 ([12]; HCT-116, read-out: LC50 values of compounds for cell line, HCT-116): 3.1 µM; depolarization of mitochondria ([13]; 10 µM): 34.73%; depolarization of mitochondria ([13]; 30 µM): 49.98%

**Q.** Which IC50 [4] does the source give for `O=c1oc2c(O)c(O)cc3c(=O)oc4c(O)c(O)cc1c4c23` [Ellagic acid] here?
**A.** Its IC50 is 0.04 µM.

**Q.** Which IC50 [1] does the source give for `CN(C)c1nc2c(Br)c(Br)c(Br)c(Br)c2n1CCc1cn(CCCC(=O)NO)nn1` [Compound 7d, N-Hydroxy-4-(4-(2-(4,5,6,7-tetrabromo-2-(dimethylamino)-1H-benzo[d]imidazol-1-yl)ethyl)-1H-1,2,3-triazol-1-yl)butanamide] here?
**A.** Its IC50 is 10.2 µM.

**Q.** What about the IC50 [3] of the same molecule?
**A.** The IC50 was 53.8 µM.
